We go through one molecule from patent publication US20130253020A1, “Treatment of Degenerative Disc Diseases” (priority 2012, published 2013).

Assay [1] has as its system primary spine disc cells. Briefly: mRNA expression of inflammatory cytokines and r-AGEs in primary spine disc cells exposed to AGEs. It is filed as cell-based, human and bovine. Conditions: FIG. 3. From the text:
Primary spine disc cells were isolated from both human and bovine spine discs. The tissues were digested using a cocktail containing collagenase P, trypsin, and other enzymes to release the primary cells embedded within the tissues (Neidlinger-Wilke C, Liedert A, Wuertz K, Buser Z, Rinkler C, Käfer W, et al. Mechanical stimulation alters pleiotrophin and aggrecan expression by human intervertebral disc cells and influences their capacity to stimulate endothelial migration. Spine 2009; 34:663-669). These cells were then conditioned and allowed to expand for 3 passages. After conditioning in normal cell culture media, the cells were exposed to several conditions: Control, bovine serum albumin, and AGEs. The treatments were dissolved directly in the cell culture media and then the cells were subjected to these conditions for 24 hours. Messenger ribose nucleic acids (mRNA) were then extracted from these cells and amplified into respective complimentary deoxyribose nucleic acids (cDNA). The cDNA sequences were tested for the normalized expression (normalized to the housekeeping gene, GAP-DH) of Interleukin (IL)-4, IL-6 (both of which initiate the inflammatory pain response), and the Receptor-for Advanced Glycation End-products (r-AGEs). The normalized expressions compared to the controls were computed by the delta-delta CT method.

For assay [2], the system named is nucleus pulposus (NP) tissues. Briefly: Dynamic microindentation of NP tissue (indentation modulus, tan δ) after thiazolium salt incubation. Details: species or system human. Conditions: ribosylated or degenerated, thiazolium salt solution 4 days, FIG. 2. The procedure:
Eleven lumbar spines (T12/L1-L5/S1) were collected fresh frozen cadavers consisting of 5 males and 6 females with a mean age of 82.5 years ±10.2. The cross-sections of the lumbar disc were visually categorized into Thompson grades 1 to 5 and corroborated with fluoroscopic imaging. The grade 1 (“Control”) and grade 5 (“Degenerate”) discs were used (total 27 discs). The discs were separated into annulus fibrosus (AF) and nucleus pulposus (NP) tissues. The Control discs were tested mechanically and then divided to undergo 0, 2, 4, 8, and 10 days of ribosylation in 0.6M ribose at 37° C. […] Three distinct sites per AF/NP were measured and averaged between the sites. […]
(§1) Following mechanical measurements, the O-day and 4-day treated Control NP tissues were incubated in 0.15M of a thiazolium salt known to cleave AGEs products (Oturai P S, Christensen M, Rolin B, Pedersen K E, Mortensen S B, Boel E. Effects of advanced glycation end-product inhibition and cross-link breakage in diabetic rats. Metab Clin Exp 2000:49:996-1000.) for 4 days. […] Following the second incubation, all tissues were mechanically assessed again, and then subjected to acid hydrolysis by 6N hydrochloric acid (16 hours, 110C). […]

Assay [3] concerns advanced glycation end-products (AGEs) in nucleus pulposus (NP) tissues. As to the kind of experiment: AGEs in NP disc tissue: autofluorescence of acid hydrolysates divided by collagen content, after thiazolium salt incubation. The arrangement: species or system human. Conditions: 4 days. On the procedure:
Eleven lumbar spines (T12/L1-L5/S1) were collected fresh frozen cadavers consisting of 5 males and 6 females with a mean age of 82.5 years ±10.2. The cross-sections of the lumbar disc were visually categorized into Thompson grades 1 to 5 and corroborated with fluoroscopic imaging. The grade 1 (“Control”) and grade 5 (“Degenerate”) discs were used (total 27 discs). The discs were separated into annulus fibrosus (AF) and nucleus pulposus (NP) tissues. The Control discs were tested mechanically and then divided to undergo 0, 2, 4, 8, and 10 days of ribosylation in 0.6M ribose at 37° C. The treated Control discs, along with the degenerated discs were then tested mechanically using a dynamic microindentation device in 0.15M PBS at 20° C. using the Biopent 1000 reference point indentation system (Active Life Scientific, CA). A 1.47 mm diameter cylindrical probe cyclically indented the tissue to a depth of 300 μm at 1 Hz to generate a force displacement curve. Three distinct sites per AF/NP were measured and averaged between the sites. The resulting force-deformation curves, accounting for the probe geometry, were used to compute elastic modulus and tan δ.
as §1, with “110C). The collagen crosslinking by AGEs, a sugar-derived posttranslational modification of amino acids, was quantified by measuring the autofluorescence of the acid hydrolysates at […] and divided by collagen content (Monnier V M, Kohn R R, Cerami A. Accelerated age-related browning of human collagen in diabetes mellitus. Proc Natl Acad Sci USA 1984; 81:583-587).” for “110C).”

As to `O=C(C[n+]1ccsc1)c1ccccc1.[Br-]` [PTB, N-phenacyl thiazolium bromide], the “cellular inflammatory response, marked by the cytokines IL-4 and IL-6” value in assay [1] (concurrent administration with AGEs in cell culture media, 24 hours) was “suppresses this response”. In assay [1] (primary spinal disc cells), the Interleukin-1 expression entry is “decrease”, the Interleukin-6 expression result is “decrease” and the “expression of the Receptor-for-Advanced Glycation End-Products” value is reported as “reduction”. Besides, in assay [2], the “mechanical properties of NP tissue (indentation modulus, tan δ)” value is reported as “rescuing effect”. The “AGEs in NP disc tissue” value in assay [3] (Grade 1 (Control) NP tissue, 0.15M PTB solution) is reported as “significant reductions”. Besides, the “AGEs in NP disc tissue” value in assay [3] (Grade 5 (Degenerate) NP tissue, 0.15M PTB solution) is “significant reductions”. In addition, the “AGEs in NP disc tissue” value in assay [3] (Grade I+Ribosylation NP tissue (4-day ribosylation), 0.15M thiazolium salt) is given as “significant reductions”.
